# Source: patent US12534454B2, “Crystal forms of 5-fluoro-1-(4-fluoro-3-(4-(pyrimidin-2-yl)piperazine-1-carbonyl)benzyl)quinazoline-2,4(1H,3H)-dione and preparation thereof” (IMPACT THERAPEUTICS (SHANGHAI), INC, priority 2020, dated 2026)
# “Also recorded” adds a separate entry of the source.
# How the values were obtained:
# Assay type in all cases: physicochemical
# [1] = Dynamic Vapor Sorption (DVS) hygroscopicity; conditions: for hygroscopicity classification: DVS; for hygroscopicity classification / mass increase (DVS): 25° C.; for change of crystal form after the DVS testing: after DVS cycle 0%-90%-0% RH; for mass increase (DVS): relative humidity from 0% to 80%
# Method: About 10 mg of sample was transferred to a DVS sample pan and the weight change as the humidity of the environment at 25° C. changes was recorded. The parameters of […] were set as follows: • Equilibrium dm/dt: 0.01%/min: (minimum: 10 min; maximum: 180 min); • Drying: 0% RH, 120 min; • RH (%) gradients: 10%; • RH (%) cycle: 0%-90%-0%. • Definition on Hygroscopicity
# [2] = Water activity study (competition of crystal forms)
# Method: Crystal Form VIII was dissolved in solvents with different water activity shown in the table below and then filtered by a needle filter to prepare a saturated solution. After the filtrate was transferred into a 1.5 mL vial, 2 mg of Crystal Form I, II, VIII, X and XI were added respectively and the resulting suspensions were shaken for a while at the target temperatures. After centrifugation, the solid obtained was air dried at ambient temperature (DMSO system was washed by MTBE) and then examined by XRPD to identify changes among different crystal forms.
# [3] = Physical stability study of crystal forms (XRPD); conditions: 25° C./60% RH and 40° C./75% RH (long-term and accelerated), 2 weeks
# Method: About 10 mg of Crystal Forms II, V and VI were added into 1.5 mL vial respectively which were then placed at the conditions of 25° C./60% RH and 40° C./75% RH. The solid in the vials was examined by XRPD at the corresponding time points.
# [4] = Thermodynamic stability / solvent competition among crystal forms; conditions: for thermodynamic status among anhydrate crystal forms: temperature below 50° C.
# Method: After filtration by a needle filter, the filtrate was transferred to 1.5 mL vial. To the vial was added 5 mg of Crystal Form V and VI and the resulting suspensions were shaken for a while at the target temperatures. After centrifugation, the obtained solid was dried at 40° C. by vacuum overnight and then examined by XRPD to identify changes among different crystal forms.
# With different solvents at corresponding temperatures shown in the table below, Crystal Form VIII was dissolved until saturated respectively. After filtration by a needle filter, the filtrate was transferred to 1.5 mL vial. To the vial was added 5 mg of Crystal Form III, V and IX and the resulting suspensions were shaken for a while at the target temperatures. After centrifugation, the obtained solid was dried at 40° C. by vacuum overnight and then examined by XRPD to identify changes among different crystal forms.
# [5] = Relative humidity X-ray powder diffraction (RH-XRPD) of Crystal Form VIII
# Method: Based on the above data, Crystal Form VIII was most likely to be a hydrate. […] Therefore, Crystal Form VIII was further characterized by RH-XRPD to confirm the hydrate crystal Form and to have the knowledge of the crystal Form transformation with the different RH.
# The parameters of XRPD used in the test were as follows: • Tube: Cu/K-Alpha (λ=1.54179Å); • Generator: Voltage: 40 KV; Current: 40 mA; • Scan Scope: 3-40 deg; • Scan Speed: 10 deg/min.
# About 100 mg of compound was evenly distributed to form a layer in a sample holder and transferred to a RH control component in which the relative humidity was controlled and adjusted by the ratio of dry/wet N2 blown.
# [6] = Long-term stability study of crystal form VIII; conditions: for Water content / XRPD (crystal form): 25 ± 2° C./60 ± 5% RH
# Method: A long-term stability study has been carried out under condition of 25° C./60% RH for the crystal form VIII.
structure (smiles),measurement,setting,value
"O=C(c1cc(Cn2c(=O)[nH]c(=O)c3c(F)cccc32)ccc1F)N1CCN(c2ncccn2)CC1 [Crystal Form II, 5-fluoro-1-(4-fluoro-3-(4-(pyrimidin-2-yl)piperazine-1-carbonyl)benzyl)quinazoline-2,4(1H,3H)-dione]",hygroscopicity classification,[1],hygroscopic
same,crystal form change in a low water activity,[2]; Aw<0.3,changed to Crystal Form V
same,crystal form change within two weeks,[3],no crystal form change; also recorded: not changed
"O=C(c1cc(Cn2c(=O)[nH]c(=O)c3c(F)cccc32)ccc1F)N1CCN(c2ncccn2)CC1 [Crystal Form VI, 5-fluoro-1-(4-fluoro-3-(4-(pyrimidin-2-yl)piperazine-1-carbonyl)benzyl)quinazoline-2,4(1H,3H)-dione]",thermodynamic status among anhydrate crystal forms,[4]; anhydrous solvents,metastable
same,crystal form change in the hydrous solvents,[4],changed to Crystal Form II
same,hygroscopicity classification,[1],slight hygroscopic
same,change of crystal form after the DVS testing,[1],no significant change
same,mass increase (DVS),[1],about 0.5%
same,crystal form change within two weeks,[3],not changed
"O=C(c1cc(Cn2c(=O)[nH]c(=O)c3c(F)cccc32)ccc1F)N1CCN(c2ncccn2)CC1 [Crystal Form V, 5-fluoro-1-(4-fluoro-3-(4-(pyrimidin-2-yl)piperazine-1-carbonyl)benzyl)quinazoline-2,4(1H,3H)-dione]",relative stability in the anhydrous solvents,"[4]; anhydrous solvents, 25° C., 50° C. and 80° C.",more stable than Crystal Form VI
same,thermodynamic status among anhydrate crystal forms,[4]; anhydrous solvents,dominant
same,crystal form change in the hydrous solvents,[4],changed to Crystal Form II
same,hygroscopicity classification,[1],slight hygroscopic
same,change of crystal form after the DVS testing,[1],no significant change
same,mass increase (DVS),[1],about 0.8%
same,crystal form change in a high water activity,[2]; Aw>0.3,changed to Crystal Form II
same,crystal form change within two weeks,[3],no crystal form change; also recorded: not changed
"O=C(c1cc(Cn2c(=O)[nH]c(=O)c3c(F)cccc32)ccc1F)N1CCN(c2ncccn2)CC1 [Crystal Form III, 5-fluoro-1-(4-fluoro-3-(4-(pyrimidin-2-yl)piperazine-1-carbonyl)benzyl)quinazoline-2,4(1H,3H)-dione]",thermodynamic status among anhydrate crystal forms,[4]; anhydrous solvents,metastable
"O=C(c1cc(Cn2c(=O)[nH]c(=O)c3c(F)cccc32)ccc1F)N1CCN(c2ncccn2)CC1 [Crystal Form “VIII”, 5-fluoro-1-(4-fluoro-3-(4-(pyrimidin-2-yl)piperazine-1-carbonyl)benzyl)quinazoline-2,4(1H,3H)-dione]",crystal form after moisture absorption,"[5]; 5° C./75% RH, ambient temperature/75% RH, or 40° C./75% RH",return to Crystal Form VIII
"O.O.O=C(c1cc(Cn2c(=O)[nH]c(=O)c3c(F)cccc32)ccc1F)N1CCN(c2ncccn2)CC1 [Crystal Form VIII, 5-fluoro-1-(4-fluoro-3-(4-(pyrimidin-2-yl)piperazine-1-carbonyl)benzyl)quinazoline-2,4(1H,3H)-dione dihydrate]","Crystal Form (RH-XRPD), absorption process","[5]; 0% RH, equilibrium 2 hour",XII
same,"Crystal Form (RH-XRPD), desorption process","[5]; 0% RH, equilibrium 2 hour",XII
same,"Crystal Form (RH-XRPD), absorption process","[5]; 10% RH, equilibrium 2 hour",XII
same,"Crystal Form (RH-XRPD), desorption process","[5]; 10% RH, equilibrium 2 hour",XII
same,"Crystal Form (RH-XRPD), absorption process","[5]; 20% RH, equilibrium 2 hour",XII
same,"Crystal Form (RH-XRPD), desorption process","[5]; 20% RH, equilibrium 2 hour",XII
same,"Crystal Form (RH-XRPD), absorption process","[5]; 30% RH, equilibrium 2 hour",“VIII”
same,"Crystal Form (RH-XRPD), desorption process","[5]; 30% RH, equilibrium 2 hour",VIII
same,"Crystal Form (RH-XRPD), absorption process","[5]; 40% RH, equilibrium 2 hour",VIII
same,"Crystal Form (RH-XRPD), desorption process","[5]; 40% RH, equilibrium 2 hour",VIII
same,"Crystal Form (RH-XRPD), absorption process","[5]; 50% RH, equilibrium 2 hour",VIII
same,"Crystal Form (RH-XRPD), desorption process","[5]; 50% RH, equilibrium 2 hour",VIII
same,"Crystal Form (RH-XRPD), absorption process","[5]; 60% RH, equilibrium 0.5 hour",VIII
same,"Crystal Form (RH-XRPD), desorption process","[5]; 60% RH, equilibrium 0.5 hour",VIII
same,"Crystal Form (RH-XRPD), absorption process","[5]; 70% RH, equilibrium 0.5 hour",VIII
same,"Crystal Form (RH-XRPD), desorption process","[5]; 70% RH, equilibrium 0.5 hour",VIII
same,"Crystal Form (RH-XRPD), absorption process","[5]; 80% RH, equilibrium 0.5 hour",VIII
same,"Crystal Form (RH-XRPD), desorption process","[5]; 80% RH, equilibrium 0.5 hour",VIII
same,"Crystal Form (RH-XRPD), absorption process","[5]; 90% RH, equilibrium 0.5 hour",VIII
same,"Crystal Form (RH-XRPD), desorption process","[5]; 90% RH, equilibrium 0.5 hour",VIII
same,relative humidity at which the crystal form is stable,"[5]; RH-XRPD and DVS, below it water is lost and the crystal form changes",no less than 40 % RH
same,hygroscopicity (in words),[1],high hygroscopicity
same,change of water content in long-term stability,"[6]; 25° C./60% RH, up to 24 months",no significant change
same,crystal form change in long-term stability,"[6]; 25° C./60% RH, up to 24 months",no crystal form change
same,long-term stability (in words),"[6]; 25° C./60% RH, up to 24 months",stable
same,Water content,[6]; 9 months,7.8%
same,Water content,[6]; 12 months,7.7%
same,XRPD (crystal form),[6]; 12 months,Form VIII
same,Water content,[6]; 18 months,7.6%
same,Water content,[6]; 24 months,7.4%
same,XRPD (crystal form),[6]; 24 months,Form VIII
same,Water content,[6]; Initial,7.7%
same,XRPD (crystal form),[6]; Initial,Form VIII
"O=C(c1cc(Cn2c(=O)[nH]c(=O)c3c(F)cccc32)ccc1F)N1CCN(c2ncccn2)CC1 [Crystal Form IX, 5-fluoro-1-(4-fluoro-3-(4-(pyrimidin-2-yl)piperazine-1-carbonyl)benzyl)quinazoline-2,4(1H,3H)-dione]",thermodynamic status among anhydrate crystal forms,[4]; anhydrous solvents,metastable
